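96-well plates; 48 h exposure; 5 concentrations. Endpoints by linear interpolation between flanking doses. Not reached: highest tested concentration assigned. Here, GI50 denotes the concentration required for 50% inhibition of growth.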 Activity calls are given as the source filed them. No stated cut-off is given here; in the data, active = GI50 up to about 1.1 µM and inactive = higher.
Columns and labels:
Test in all cases: inhibition of tumour cell growth, NCI panel, 48 h
HCC 2998 = tested on: HCC 2998
MCF7 = tested on: MCF7
HCT-15 = tested on: HCT-15
SNB-75 = tested on: SNB-75
NCI-H522 = tested on: NCI-H522
CCRF-CEM = tested on: CCRF-CEM
SK-MEL-2 = tested on: SK-MEL-2
NCI-H226 = tested on: NCI-H226
HT-29 = tested on: HT-29
SF-539 = tested on: SF-539
A549 = tested on: A549
LOX IMVI = tested on: LOX IMVI
RXF 393 = tested on: RXF 393
KM12 = tested on: KM12
OVCAR-3 = tested on: OVCAR-3
UACC-62 = tested on: UACC-62
COLO 205 = tested on: COLO 205
HL-60 = tested on: HL-60
M14 = tested on: M14
MDA-MB-435 = tested on: MDA-MB-435

| Structure (SMILES) | GI50 (HCC 2998) | GI50 (MCF7) | GI50 (HCT-15) [µM] | GI50 (SNB-75) | GI50 (NCI-H522) | GI50 (CCRF-CEM) | GI50 (SK-MEL-2) | GI50 (NCI-H226) | GI50 (HT-29) | GI50 (SF-539) | GI50 (A549) | GI50 (LOX IMVI) | GI50 (RXF 393) | GI50 (KM12) | GI50 (OVCAR-3) | GI50 (UACC-62) | GI50 (COLO 205) | GI50 (HL-60) | GI50 (M14) | GI50 (MDA-MB-435) |
| --- | --- | --- | --- | --- | --- | --- | --- | --- | --- | --- | --- | --- | --- | --- | --- | --- | --- | --- | --- | --- |
| C=CCCCCn1c2ccccc2c2c(C)c3cnccc3c(C)c21 | 10.1 µM (inactive) | 7.73 µM (inactive) | 6.27 | 3.88 µM (inactive) | 3.97 µM (inactive) | 4.04 µM (inactive) | 13.4 µM (inactive) | 10.9 µM (inactive) | 7 µM (inactive) | 12.5 µM (inactive) | 8.99 µM (inactive) | 7.55 µM (inactive) | 6.25 µM (inactive) | 8.47 µM (inactive) | 4.99 µM (inactive) | 11.2 µM (inactive) | 3.96 µM (inactive) | 2.07 µM (inactive) | – | – |
| CC1=C2[C@@H](c3ccccc3)C3C=CC2(C=C3C(F)(F)F)N(C(=O)NC2CCCCC2)C1=O (stereo partly specified) | 38.9 µM (inactive) | – | 81.3 | > 100 µM (inactive) | – | 25.1 µM (inactive) | – | – | 72.9 µM (inactive) | 52.4 µM (inactive) | 67.5 µM (inactive) | 44 µM (inactive) | > 100 µM (inactive) | 72.6 µM (inactive) | > 100 µM (inactive) | > 100 µM (inactive) | > 100 µM (inactive) | 14.8 µM (inactive) | 81.3 µM (inactive) | – |
| C1CCC(OCc2nnn3c2CCC3)OC1 (stereo unspecified) | > 100 µM (inactive) | – | > 100 | > 100 µM (inactive) | > 100 µM (inactive) | > 100 µM (inactive) | > 100 µM (inactive) | – | > 100 µM (inactive) | > 100 µM (inactive) | > 100 µM (inactive) | > 100 µM (inactive) | > 100 µM (inactive) | > 100 µM (inactive) | > 100 µM (inactive) | > 100 µM (inactive) | – | > 100 µM (inactive) | > 100 µM (inactive) | – |
| Cn1cc(C(=O)c2ccccc2)ccc1=O | > 100 µM (inactive) | – | > 100 | > 100 µM (inactive) | > 100 µM (inactive) | > 100 µM (inactive) | > 100 µM (inactive) | > 100 µM (inactive) | > 100 µM (inactive) | > 100 µM (inactive) | > 100 µM (inactive) | > 100 µM (inactive) | > 100 µM (inactive) | > 100 µM (inactive) | > 100 µM (inactive) | > 100 µM (inactive) | > 100 µM (inactive) | > 100 µM (inactive) | > 100 µM (inactive) | – |
| CCOC(=O)C1(Cc2ccc3ccccc3c2)CCCCC(=O)N1 (stereo unspecified) | 8.67 µM (inactive) | – | 28.8 | 0.286 µM (active) | – | 23.3 µM (inactive) | – | – | 30.8 µM (inactive) | – | 39.1 µM (inactive) | 24.1 µM (inactive) | > 100 µM (inactive) | – | 17.5 µM (inactive) | 36.1 µM (inactive) | 39.1 µM (inactive) | 12.1 µM (inactive) | 39.3 µM (inactive) | – |
| COCCOc1nc(-c2ccccc2)nc2ccccc12 | – | 37.2 µM (inactive) | 19.2 | 60.8 µM (inactive) | 35.3 µM (inactive) | – | 51.8 µM (inactive) | – | 29.6 µM (inactive) | 48.8 µM (inactive) | 37.3 µM (inactive) | 47.8 µM (inactive) | 11.7 µM (inactive) | 30 µM (inactive) | 95.1 µM (inactive) | 20.7 µM (inactive) | 32.6 µM (inactive) | 29.2 µM (inactive) | 27.7 µM (inactive) | 52.4 µM (inactive) |
| Cc1ccc(-c2c(C#N)c(N)nc3c2CCS(=O)(=O)c2ccccc2-3)cc1 | > 100 µM (inactive) | – | > 100 | 20.6 µM (inactive) | > 100 µM (inactive) | – | 49.1 µM (inactive) | 66.1 µM (inactive) | > 100 µM (inactive) | – | > 100 µM (inactive) | > 100 µM (inactive) | – | > 100 µM (inactive) | – | 57.3 µM (inactive) | > 100 µM (inactive) | – | – | > 100 µM (inactive) |
| Nc1c(/N=N/c2ccc(-c3ccc(/N=N/c4c(O)ccc5cc(S(=O)(=O)O)cc(S(=O)(=O)O)c45)cc3)cc2)c(S(=O)(=O)O)cc2cc(S(=O)(=O)O)c(/N=N/c3ccccc3)c(O)c12 | > 100 µM (inactive) | > 100 µM (inactive) | > 100 | 35.7 µM (inactive) | > 100 µM (inactive) | > 100 µM (inactive) | > 100 µM (inactive) | 19.6 µM (inactive) | > 100 µM (inactive) | > 100 µM (inactive) | > 70.8 µM (inactive) | > 69 µM (inactive) | > 100 µM (inactive) | > 100 µM (inactive) | > 100 µM (inactive) | > 100 µM (inactive) | > 100 µM (inactive) | 85.1 µM (inactive) | – | – |
| CC1=C(C(=O)Nc2cccc(Cl)c2)C(c2ccc([N+](=O)[O-])cc2)C(C(=O)Nc2cccc(Cl)c2)=C(C)N1 | 17.9 µM (inactive) | – | 23.7 | 10.7 µM (inactive) | 26.3 µM (inactive) | 10.9 µM (inactive) | 18.3 µM (inactive) | 26.9 µM (inactive) | 16.6 µM (inactive) | 39.8 µM (inactive) | 28.9 µM (inactive) | 14.9 µM (inactive) | 19.5 µM (inactive) | 21.4 µM (inactive) | 25.6 µM (inactive) | 14 µM (inactive) | 34.5 µM (inactive) | 17.9 µM (inactive) | 16.6 µM (inactive) | – |

Reference: ChEMBL document CHEMBL1201862, “PubChem BioAssay data set” (2004)
